A short description of this series: pKa value was determined. The format is physicochemical.

A word on the pKa: it is the pH at which an ionisable group is half protonated.

In the case of `COC(=O)C(Cc1ccc(O)cc1)NC(=O)CN(CCN(CC(=O)O)CC(=O)NC(Cc1ccc(O)cc1)C(=O)OC)CC(=O)O` (stereo unspecified), the pKa amounted to 6.8.

(Values after ChEMBL document CHEMBL1136388, “EDTA bis-(methyl tyrosinate): a chelating peptoid peroxynitrite scavenger” (Bioorg Med Chem Lett, 2003).)
